Source: patent US20130190289A1, “COMPOUNDS AND METHODS FOR THE TREATMENT OR PREVENTION OF FLAVIVIRUS INFECTIONS” (priority 2010, published 2013)
Where two headings read alike, the source gives them in different places.

Tests used:
[1] = test system: HCV replicon (genotype 1b) in Huh7 cell line ET; assay: microbe, parasite or virus in culture; assay type: cell-based, HCV genotype 1b; settings: Hepatitis C virus
[2] = [3H]Thymidine incorporation assay (cell toxicity); settings: human
[3] = Huh-7, read-out: HCV-Replicon-(Luci-ET) 1b_IC50

Row | SMILES | IC50 [1, 3] [µM] | CC50 at 72 h [2] [µM] | IC50 ([1]; Huh-7, 96 h, read-out: HCV-Replicon (Luci-ET)-1b_IC50) [µM]
1 | C[C@@H](C(=O)NC1CCC(O)CC1)N(c1cc(C#CC(C)(C)C)sc1C(=O)O)C(=O)[C@H]1CC[C@H](C)CC1 (stereo partly drawn) [Compound 31, 5-(3,3-Dimethylbut-1-ynyl)-3-[[(1S)-2-[(4-hydroxycyclohexyl)amino]-1-methyl-2-oxo-ethyl]-(trans-4-methylcyclohexanecarbonyl)amino]thiophene-2-carboxylic acid] | < 0.1 | > 100 | –
2 | CN(C)CCN1CCCC[C@H](N(c2cc(C#CC(C)(C)C)sc2C(=O)O)C(=O)[C@H]2CC[C@H](C)CC2)C1=O [Compound 145, (S)-5-(3,3-Dimethylbut-1-ynyl)-3-((trans)-4-methyl-N-(1-(2-dimethylaminoethyl)-2-oxoazepan-3-yl)cyclohexanecarboxamido)thiophene-2-carboxylic acid] | – | 10 to 100 | < 0.1
3 | CC(C)NC(=O)CN(c1cc(C#CC(C)(C)C)sc1C(=O)O)C(=O)[C@H]1CC[C@H](C)CC1 [Compound 73, 5-(3,3-dimethylbut-1-ynyl)-3-[[2-(isopropylamino)-2-oxo-ethyl]-(trans-4-methylcyclohexanecarbonyl)amino]thiophene-2-carboxylic acid] | < 0.1 | > 100 | –
4 | CO[C@@H](C)[C@H](C(=O)N1CCOCC1)N(c1cc(C#CC(C)(C)C)sc1C(=O)O)C(=O)[C@H]1CC[C@H](C)CC1 [Compound 72, 5-(3,3-dimethylbut-1-ynyl)-3-[[(1R,2S)-2-methoxy-1-(morpholine-4-carbonyl)propyl]-(trans-4-methylcyclohexanecarbonyl)amino]thiophene-2-carboxylic acid] | < 0.1 | > 100 | –
